The record followed here is the supplement of paper PMC12137928.

Counter-ions that a name gives are not always drawn.

This experiment concerns HCT116. Conditions: 72 h. Put shortly: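 HCT116 cells went into 1536-well plates at 250 per well. CellTiter-Glo luminescence was expressed relative to vehicle (0%) and positive control (-100%) and then pattern-corrected. Both IC50 and maximal efficacy were taken from four-parameter Hill fits.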

Molecule `NC[C@@H]1O[C@H](O[C@H]2[C@@H](O)[C@H](O[C@@H]3[C@@H](O)[C@H](N)C[C@H](N)[C@H]3O[C@H]3O[C@H](CO)[C@@H](O)[C@H](O)[C@H]3N)O[C@@H]2CO)[C@H](N)[C@@H](O)[C@@H]1O` [PAROMOMYCIN SULFATE] came in with an IC50 cell viability (ICRF193 0 nM) greater than 45.8 µM and an IC50 cell viability (ICRF193 200 nM) greater than 45.8 µM.

For `CC(N)C12CC3CC(CC(C3)C1)C2` (configuration not stated) [Rimantadine], the IC50 cell viability is, setting by setting: (ICRF193 0 nM) greater than 45.8 µM; (ICRF193 200 nM) greater than 45.8 µM.

`O=c1cc(CO)occ1O` [Kojic acid] displayed an IC50 cell viability (ICRF193 0 nM) greater than 45.8 µM and an IC50 cell viability (ICRF193 200 nM) greater than 45.8 µM.

For the molecule `N[C@@H](C(=O)N[C@@H]1C(=O)N2C(C(=O)O)=C(CSc3c[nH]nn3)CS[C@H]12)c1ccc(O)cc1` [Cefatrizine], the IC50 cell viability is greater than 45.8 µM (ICRF193 0 nM) and greater than 45.8 µM (ICRF193 200 nM).

In the case of `C[C@@H]1C/C=C/C=C/C=C/C=C/[C@H](O[C@@H]2O[C@H](C)[C@@H](O)[C@H](N)[C@@H]2O)C[C@@H]2O[C@](O)(C[C@@H](O)C[C@H]3O[C@@H]3/C=C/C(=O)O1)C[C@H](O)[C@H]2C(=O)O` [Pimaricin], the IC50 cell viability by setting is: (ICRF193 0 nM) greater than 45.8 µM; (ICRF193 200 nM) greater than 45.8 µM.

Regarding `CN1CC(O)C2=C/C(=N/NC(N)=O)C(=O)C=C21` (configuration not stated) [Adrenochrome semicarbazone], the IC50 cell viability reads like this: (ICRF193 0 nM) greater than 45.8 µM; (ICRF193 200 nM) greater than 45.8 µM.

Regarding `COc1cc(C(=O)NS(=O)(=O)c2ccccc2C)ccc1Cc1cn(C)c2ccc(NC(=O)OC3CCCC3)cc12` [Zafirlukast], the IC50 cell viability (ICRF193 0 nM) is greater than 45.8 µM and the IC50 cell viability (ICRF193 200 nM) is greater than 45.8 µM.

Turning to `Cc1ccc(/C(=C\CN2CCCC2)c2cccc(/C=C/C(=O)O)n2)cc1` [Acrivastine], the IC50 cell viability by setting is: (ICRF193 0 nM) greater than 45.8 µM; (ICRF193 200 nM) greater than 45.8 µM.

Turning to `CCCCNc1ccc(C(=O)OCCOCCOCCOCCOCCOCCOCCOCCOCCOC)cc1` [Benzonatate], the IC50 cell viability is greater than 45.8 µM (ICRF193 0 nM) and greater than 45.8 µM (ICRF193 200 nM).

On to `CCCCCCCCCCCCCCCC(=O)OCC(=O)[C@@]1(O)[C@H](C)C[C@H]2[C@@H]3CCC4=CC(=O)C=C[C@]4(C)[C@@]3(F)[C@@H](O)C[C@@]21C` [Dexamethasone 21-Palmitate], for which the IC50 cell viability was greater than 45.8 µM (ICRF193 0 nM) and greater than 45.8 µM (ICRF193 200 nM).

On to `Nc1ccncc1` [4-Aminopyridine], for which the IC50 cell viability reads like this: (ICRF193 0 nM) greater than 45.8 µM; (ICRF193 200 nM) greater than 45.8 µM.

For the molecule `CN(C)CCCOC1(Cc2ccccc2)CCCCCC1` [Bencyclane], the IC50 cell viability is, setting by setting: (ICRF193 0 nM) greater than 45.8 µM; (ICRF193 200 nM) greater than 45.8 µM.

On to `CCOC(=O)O[C@]1(C(=O)OCCl)CC[C@H]2[C@@H]3CCC4=CC(=O)C=C[C@]4(C)[C@H]3[C@@H](O)C[C@@]21C` [Loteprednol etabonate], for which the IC50 cell viability by setting is: (ICRF193 0 nM) greater than 45.8 µM; (ICRF193 200 nM) greater than 45.8 µM.

`C#CCN(C)[C@H](C)Cc1ccccc1` [Selegiline hydrochloride] gave an IC50 cell viability (ICRF193 0 nM) greater than 45.8 µM and an IC50 cell viability (ICRF193 200 nM) greater than 45.8 µM.

On to `C=CC1=C(C(=O)O)N2C(=O)[C@@H](NC(=O)/C(=N\O)c3csc(N)n3)[C@H]2SC1` [Cefdinir], for which the IC50 cell viability was greater than 45.8 µM (ICRF193 0 nM) and greater than 45.8 µM (ICRF193 200 nM).

`CCN(CC)CCOCCOC(=O)C1(c2ccccc2)CCCC1` [Carbetapentane]: the IC50 cell viability is, setting by setting: (ICRF193 0 nM) greater than 45.8 µM; (ICRF193 200 nM) greater than 45.8 µM.

Turning to `CC(C)=CC1C(C(=O)OCc2cccc(Oc3ccccc3)c2)C1(C)C` (configuration not stated) [Phenothrin], the IC50 cell viability (ICRF193 0 nM) is greater than 45.8 µM and the IC50 cell viability (ICRF193 200 nM) is greater than 45.8 µM.

Turning to `NC(=O)OCC(O)COc1ccc(Cl)cc1` (configuration not stated) [Chlorphensin carbamate], the IC50 cell viability was greater than 45.8 µM (ICRF193 0 nM) and greater than 45.8 µM (ICRF193 200 nM).

On to `CCOC(=O)[C@H](CCc1ccccc1)N[C@H]1CCc2ccccc2N(CC(=O)O)C1=O` [Benazepril], for which the IC50 cell viability was greater than 45.8 µM (ICRF193 0 nM) and greater than 45.8 µM (ICRF193 200 nM).

In the case of `CCCCC(CC)COC(=O)C=Cc1ccc(OC)cc1` (configuration not stated) [Octinoxate], the IC50 cell viability was greater than 45.8 µM (ICRF193 0 nM) and greater than 45.8 µM (ICRF193 200 nM).

As for `COc1cc2nccc(Oc3ccc(NC(=O)NC4CC4)c(Cl)c3)c2cc1C(N)=O` [Lenvatinib], the IC50 cell viability runs as follows: (ICRF193 0 nM) greater than 45.8 µM; (ICRF193 200 nM) greater than 45.8 µM.

In the case of `COc1ccc2c(c1)c(CC(=O)OC/C=C(\C)CC/C=C(\C)CCC=C(C)C)c(C)n2C(=O)c1ccc(Cl)cc1` [Indomethacin farnesil], the IC50 cell viability runs as follows: (ICRF193 0 nM) greater than 45.8 µM; (ICRF193 200 nM) greater than 45.8 µM.

Turning to `CCN(CC)C(=O)Nc1ccc(OCC(O)CNC(C)(C)C)c(C(C)=O)c1` (configuration not stated) [Celiprolol hydrochloride], the IC50 cell viability by setting is: (ICRF193 0 nM) greater than 45.8 µM; (ICRF193 200 nM) greater than 45.8 µM.

On to `Cc1cccc(C)c1NC1=NCCCS1` [Xylazine], for which the IC50 cell viability by setting is: (ICRF193 0 nM) greater than 45.8 µM; (ICRF193 200 nM) greater than 45.8 µM.

For the molecule `CC(C)(C)C(=O)C(Oc1ccc(Cl)cc1)n1ccnc1` (configuration not stated) [Climbazole], the IC50 cell viability is, setting by setting: (ICRF193 0 nM) greater than 45.8 µM; (ICRF193 200 nM) greater than 45.8 µM.

`CCOC(=O)COc1ccc2c(=O)cc(-c3ccccc3)oc2c1` [EFLOXATE] registered an IC50 cell viability (ICRF193 0 nM) greater than 45.8 µM and an IC50 cell viability (ICRF193 200 nM) greater than 45.8 µM.
